In article PMC11062899, “De novo development of small cyclic peptides that are orally bioavailable” (Nature Chemical Biology, 2023):
“And” between values parts separate entries of the source, which are not always exact repeats. Equal values may be shown once. Read-outs that look alike come from different tables or passages of the source.

Assays:
[1] = target: human α-thrombin (Homo sapiens, UniProt P00734); experiment: Protease inhibition, Ki for human α-thrombin (fluorogenic substrate Z-Gly-Gly-Arg-AMC); format: biochemical; details: for slope normalized to DMSO, human alpha thrombin inhibition: replicates R1-R3
In short: (§1)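 Ki derived through Cheng–Prusoff from IC50s (four-parameter logistic fit) against activity of peptide-free controls. Product fluorescence was read every 3 min over 30 min at 25 °C, substrate Z-Gly-Gly-Arg-AMC at 50 μM. Enzyme was 2 nM human or 3 nM rat α-thrombin, pH 7.4 buffer.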

[2] = target: T1, rat α-thrombin (Rattus norvegicus, UniProt P18292); experiment: Protease inhibition, Ki for rat α-thrombin (fluorogenic substrate Z-Gly-Gly-Arg-AMC); format: biochemical; details: for slope normalized to DMSO, rat alpha thrombin inhibition: replicates R1-R3
T1 construct: rat α-thrombin (Molecular Innovations) were used at final concentrations of 2 nM and 3 nM; purchased Molecular Innovations
In short: as §1

[3] = target: T2, porcine pepsin (Sus scrofa, UniProt P00791); experiment: Peptide stability in simulated gastric fluid (SGF); format: in vitro ADME; details: pig, simulated gi fluid; 8 h, 37 °C, pH 1.2; read-out: Proteolytic stability: SGF (8 h) % remaining
T2 construct: 0.32 g of porcine pepsin (Sigma-Aldrich, P7125) was dissolved under gentle agitation; purchased Sigma-Aldrich P7125
T2 sequence (P00791 60-385): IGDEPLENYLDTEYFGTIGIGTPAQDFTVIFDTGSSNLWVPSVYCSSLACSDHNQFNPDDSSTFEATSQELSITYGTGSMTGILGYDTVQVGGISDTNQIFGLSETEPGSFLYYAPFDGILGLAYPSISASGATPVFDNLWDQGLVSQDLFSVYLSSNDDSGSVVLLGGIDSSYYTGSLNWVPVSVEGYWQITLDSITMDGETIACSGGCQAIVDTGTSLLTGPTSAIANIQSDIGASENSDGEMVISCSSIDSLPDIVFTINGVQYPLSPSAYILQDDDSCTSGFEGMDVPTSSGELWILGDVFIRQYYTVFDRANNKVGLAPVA
In short: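 Peptide from a 1 mM DMSO stock was added to fluid pre-warmed at 37 °C. SGF was pH 1.2 NaCl with porcine pepsin (0.32 g per 100 ml), and SIF was pH 6.8 potassium phosphate with porcine pancreatin (1 g per 100 ml). Supernatant peptide was quantified by LC–MS, with residual expressed as T1/T0.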

[4] = Passive artificial membrane permeability (PAMPA);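 on Permeability% Average: top well sample relative to theoretical equilibrium sample by TIC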
[5] = Metabolic stability in rat liver microsomes (RLMs); details: for TIC value of compound, metabolic stability RLM: replicates R1-R3; for microsomal CLint / half-life: rat, microsomes

Structure (SMILES): O=C1C[C@H]2CCCN2C(=O)[C@H](Cc2ccccc2)NC(=O)[C@@H](NC(=O)c2ccc(Cl)cc2)CCC=CCCCCN1 (mixture of isomers) [peptide 46]
- Ki ([1]; average of R1-R3, read-out: Ki Average, human alpha thrombin inhibition): 0.0651 µM
- IC50 ([1]; individual replicates R1-R3, read-out: IC50, human alpha thrombin inhibition): 0.0941 µM and 0.0798 µM and 0.0797 µM
- Ki ([1]; individual replicates R1-R3, read-out: Ki, human alpha thrombin inhibition): 72.5 nM (2×) and 61.5 nM (2×) and 61.4 nM (2×)
- slope normalized to DMSO, human alpha thrombin inhibition ([1]; peptide 1.00E+02 uM): 10.4 and 9.8 and 9.9
- slope normalized to DMSO, human alpha thrombin inhibition ([1]; peptide 1.19E-05 uM): 103.8 and 104.1 and 105.5
- slope normalized to DMSO, human alpha thrombin inhibition ([1]; peptide 1.22E-02 uM): 87.6 and 86.9 (2×)
- slope normalized to DMSO, human alpha thrombin inhibition ([1]; peptide 1.25E+01 uM): 5.3 and 12.2 and 12.4
- slope normalized to DMSO, human alpha thrombin inhibition ([1]; peptide 1.53E-03 uM): 101.5 and 101.1 and 102.6
- slope normalized to DMSO, human alpha thrombin inhibition ([1]; peptide 1.56E+00 uM): 20.2 and 17.9 and 18.1
- slope normalized to DMSO, human alpha thrombin inhibition ([1]; peptide 1.91E-04 uM): 103.2 and 104.0 and 103.7
- slope normalized to DMSO, human alpha thrombin inhibition ([1]; peptide 1.95E-01 uM): 45.4 and 43.2 and 43.8
- slope normalized to DMSO, human alpha thrombin inhibition ([1]; peptide 2.38E-05 uM): 104.8 and 104.2 and 105.6
- slope normalized to DMSO, human alpha thrombin inhibition ([1]; peptide 2.44E-02 uM): 80.1 and 79.6 and 79.3
- slope normalized to DMSO, human alpha thrombin inhibition ([1]; peptide 2.50E+01 uM): 11.9 and 11.0 and 10.5
- slope normalized to DMSO, human alpha thrombin inhibition ([1]; peptide 3.05E-03 uM): 97.6 and 98.1 and 98.6
- slope normalized to DMSO, human alpha thrombin inhibition ([1]; peptide 3.12E+00 uM): 16.0 and 13.3 and 14.6
- slope normalized to DMSO, human alpha thrombin inhibition ([1]; peptide 3.81E-04 uM): 102.7 and 102.9 and 102.6
- slope normalized to DMSO, human alpha thrombin inhibition ([1]; peptide 3.91E-01 uM): 32.0 and 29.5 and 28.9
- slope normalized to DMSO, human alpha thrombin inhibition ([1]; peptide 4.77E-05 uM): 102.3 and 105.2 and 103.4
- slope normalized to DMSO, human alpha thrombin inhibition ([1]; peptide 4.88E-02 uM): 66.2 and 64.4 and 64.1
- slope normalized to DMSO, human alpha thrombin inhibition ([1]; peptide 5.00E+01 uM): 11.3 and 10.4 and 8.0
- slope normalized to DMSO, human alpha thrombin inhibition ([1]; peptide 6.10E-03 uM): 94.3 and 94.6 and 94.4
- slope normalized to DMSO, human alpha thrombin inhibition ([1]; peptide 6.25E+00 uM): 14.8 and 13.5 (2×)
- slope normalized to DMSO, human alpha thrombin inhibition ([1]; peptide 7.63E-04 uM): 99.9 and 102.3 and 103.3
- slope normalized to DMSO, human alpha thrombin inhibition ([1]; peptide 7.81E-01 uM): 26.0 and 24.0 (2×)
- slope normalized to DMSO, human alpha thrombin inhibition ([1]; peptide 9.54E-05 uM): 102.8 and 104.6 and 103.3
- slope normalized to DMSO, human alpha thrombin inhibition ([1]; peptide 9.77E-02 uM): 53.1 and 52.5
- IC50 ([2]; individual replicates R1-R3, read-out: IC50, rat alpha thrombin inhibition): 0.0186 µM and 0.0188 µM and 0.0182 µM
- Ki ([2]; individual replicates R1-R3, read-out: Ki, rat alpha thrombin inhibition): 0.0103 µM and 0.0104 µM and 0.0101 µM
- slope normalized to DMSO, rat alpha thrombin inhibition ([2]; peptide 1.00E+02 uM): 8.3 and 7.3 and 7.2
- slope normalized to DMSO, rat alpha thrombin inhibition ([2]; peptide 1.19E-05 uM): 99.4 and 100.3 and 100.6
- slope normalized to DMSO, rat alpha thrombin inhibition ([2]; peptide 1.22E-02 uM): 60.3 and 60.4 and 59.6
- slope normalized to DMSO, rat alpha thrombin inhibition ([2]; peptide 1.25E+01 uM): 5.7 and 8.0 and 8.3
- slope normalized to DMSO, rat alpha thrombin inhibition ([2]; peptide 1.53E-03 uM): 88.8 and 87.9 and 87.4
- slope normalized to DMSO, rat alpha thrombin inhibition ([2]; peptide 1.56E+00 uM): 10.8 and 10.2 and 9.8
- slope normalized to DMSO, rat alpha thrombin inhibition ([2]; peptide 1.91E-04 uM): 94.6 and 95.0 and 96.1
- slope normalized to DMSO, rat alpha thrombin inhibition ([2]; peptide 1.95E-01 uM): 21.1 and 20.0 and 19.8
- slope normalized to DMSO, rat alpha thrombin inhibition ([2]; peptide 2.38E-05 uM): 96.3 and 97.7 and 98.1
- slope normalized to DMSO, rat alpha thrombin inhibition ([2]; peptide 2.44E-02 uM): 48.7 and 49.3 and 48.8
- slope normalized to DMSO, rat alpha thrombin inhibition ([2]; peptide 2.50E+01 uM): 12.0 and 7.7 and 6.9
- slope normalized to DMSO, rat alpha thrombin inhibition ([2]; peptide 3.05E-03 uM): 80.9 and 81.1 and 81.9
- slope normalized to DMSO, rat alpha thrombin inhibition ([2]; peptide 3.12E+00 uM): 9.6 and 9.4 and 8.9
- slope normalized to DMSO, rat alpha thrombin inhibition ([2]; peptide 3.81E-04 uM): 92.9 and 94.7 and 94.0
- slope normalized to DMSO, rat alpha thrombin inhibition ([2]; peptide 3.91E-01 uM): 15.0 and 14.0 and 13.6
- slope normalized to DMSO, rat alpha thrombin inhibition ([2]; peptide 4.77E-05 uM): 95.4 and 96.4 and 96.6
- slope normalized to DMSO, rat alpha thrombin inhibition ([2]; peptide 4.88E-02 uM): 33.7 and 33.6 and 33.1
- slope normalized to DMSO, rat alpha thrombin inhibition ([2]; peptide 5.00E+01 uM): 7.6 and 7.2 and 7.4
- slope normalized to DMSO, rat alpha thrombin inhibition ([2]; peptide 6.10E-03 uM): 72.8 and 73.4 and 73.0
- slope normalized to DMSO, rat alpha thrombin inhibition ([2]; peptide 6.25E+00 uM): 10.1 and 8.5 and 8.3
- slope normalized to DMSO, rat alpha thrombin inhibition ([2]; peptide 7.63E-04 uM): 91.2 and 92.2 and 91.3
- slope normalized to DMSO, rat alpha thrombin inhibition ([2]; peptide 7.81E-01 uM): 13.0 and 11.7 and 11.5
- slope normalized to DMSO, rat alpha thrombin inhibition ([2]; peptide 9.54E-05 uM): 95.8 and 95.1 and 95.6
- slope normalized to DMSO, rat alpha thrombin inhibition ([2]; peptide 9.77E-02 uM): 26.6 and 25.4 and 25.1
- remaining at 8 h [3]: 96 ± 12%
- PAMPA permeability: % permeability ([4]; 50 μM, 12–18 h, acceptor concentration relative to equilibrium): 55 ± 8%
- Permeability% (single replicates R1–R3) ([4]; 50 μM, 12 h (Fig. 6d)): 49.41% and 50.43% and 63.83%
- Permeability% Average ([4]; 50 μM, 12 h (Fig. 6d)): 54.6%
- Papp at 50 μM ([4]; PAMPA, pH 7.4): 77.6 nm/s
- TIC value of compound, metabolic stability RLM ([5]; 0 min): 14110188 (2×) and 12352514
- TIC value of compound, metabolic stability RLM ([5]; 5 min): 13677902 and 11194388 and 11188088
- TIC value of compound, metabolic stability RLM ([5]; 15 min): 10674204 and 7516980 and 9028625
- TIC value of compound, metabolic stability RLM ([5]; 30 min): 7710068 and 5736371 and 6256299
- TIC value of compound, metabolic stability RLM ([5]; 60 min): 3465219 and 2801334 and 3774480
- CL, RLM ([5]; individual replicates R1-R3): 41.9492 ul/min/mg protein and 42.0127 ul/min/mg protein
- Half Life, RLM ([5]; individual replicates R1-R3): 33.04 min and 32.99 min
- microsomal CLint ([5]; CL, RLM, individual replicates R1-R3): 41.5 µL/min/mg
- half-life ([5]; Half Life, RLM, individual replicates R1-R3): 33.4 min
- microsomal CLint ([5]; Metabolic stability: RLM CL (ul/min/mg), RLMs, mean and SD, three measurements): 43 ± 1 µL/min/mg
- half-life ([5]; pH 7.4, Metabolic stability: Half life T1/2 (min), RLMs, mean and SD, three measurements): 33 ± 1 min
